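Following 48 hours of exposure in 96-well plates, responses at five concentrations were used to interpolate endpoints linearly. At the GI50, growth is halved. TGI: total growth inhibition.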
Columns and labels:
Assay in all cases: NCI tumour cell line growth inhibition, 48 h
HCC-2998 colon = tested on: HCC-2998 colon
HT29 colon = tested on: HT29 colon
IGROV1 ovarian = tested on: IGROV1 ovarian
OVCAR-4 ovarian = tested on: OVCAR-4 ovarian
SK-OV-3 ovarian = tested on: SK-OV-3 ovarian
SR leukemia = tested on: SR leukemia
UACC-257 melanoma = tested on: UACC-257 melanoma
UO-31 renal = tested on: UO-31 renal
NCI/ADR-RES ovarian = tested on: NCI/ADR-RES ovarian
MCF7 breast = tested on: MCF7 breast

Row | SMILES | TGI (HCC-2998 colon) [µM] | TGI (HT29 colon) [µM] | TGI (IGROV1 ovarian) [µM] | TGI (OVCAR-4 ovarian) [µM] | TGI (SK-OV-3 ovarian) [µM] | TGI (SR leukemia) [µM] | TGI (UACC-257 melanoma) [µM] | TGI (UO-31 renal) [µM] | GI50 (HCC-2998 colon) [µM] | GI50 (HT29 colon) [µM] | GI50 (IGROV1 ovarian) [µM] | GI50 (NCI/ADR-RES ovarian) [µM] | TGI (NCI/ADR-RES ovarian) [µM] | GI50 (OVCAR-4 ovarian) [µM] | GI50 (SK-OV-3 ovarian) [µM] | GI50 (SR leukemia) [µM] | GI50 (UACC-257 melanoma) [µM] | GI50 (UO-31 renal) [µM] | GI50 (MCF7 breast) [µM] | TGI (MCF7 breast) [µM]
1 | CCCCOC(=O)C1C(c2ccc(Cl)cc2)NC(c2ccc(Cl)cc2)C(C(=O)OCCCC)S1(=O)=O (stereo not given) | > 100 | > 100 | > 100 | > 100 | > 100 | > 100 | > 100 | > 100 | – | – | – | – | – | – | – | – | – | – | – | –
2 | O=C(OCc1ccc2cccc(O)c2n1)N1CCN(C(=O)c2cc3cc(F)ccc3[nH]2)CC1 | 3.26 | 3.05 | 1.64 | 2.74 | 11.9 | 1.6 | 2.89 | 1.93 | 1.69 | 1.14 | 0.403 | 1.76 | 6.07 | 1.35 | 2.77 | 0.272 | 1.46 | 0.358 | – | –
3 | O=c1nc2occc2cn1C1CC(O)C(CO)O1 (stereo not given) | > 100 | > 100 | > 100 | > 100 | > 100 | > 100 | > 100 | > 100 | – | – | – | – | – | – | – | – | – | – | – | –
4 | COc1ccc(NC(=O)CCc2cc(-c3ccc(O)c(OC)c3)nc(NC#N)n2)cc1 | > 100 | > 100 | > 100 | > 100 | > 100 | > 100 | > 100 | > 100 | – | – | – | – | – | – | – | – | – | – | – | –
5 | Cc1cc(Br)cc(C)c1NC(=O)C(=O)C(C(=O)c1ccc2ccccc2c1)C1OC(=O)c2ccccc21 (stereo not given) | 24.7 | 41.7 | 51.8 | > 36.4 | > 100 | 33.9 | 17.5 | 30.3 | – | – | – | – | – | – | – | – | – | – | – | –
6 | COC(=O)C1=C(c2ccc3c(c2)OCO3)O[C@H](c2cc(OC)c(OC)c(OC)c2)[C@H]1COC(C)=O | 19.6 | 11.5 | 81 | > 100 | 5.94 | 70.3 | 56 | 31.6 | – | – | – | – | – | – | – | – | – | – | – | –
7 | CCN(CC)CCOc1ccc(/C=C(\C#N)c2ccc(OCCN(CC)CC)cc2)cc1 | 32.3 | 8.58 | > 52.4 | > 75.4 | > 64.2 | 30 | 31.3 | 31.2 | – | – | – | – | – | – | – | – | – | – | – | –
8 | O=C1CN=C(C[N+](=O)[O-])c2ccccc21 | – | > 100 | > 100 | > 100 | > 100 | > 100 | > 100 | > 100 | – | – | – | – | – | – | – | – | – | – | – | –
9 | COc1ccc(OC)c(NC(=O)C(=O)NNC(=O)c2sc(NNC(C)=O)nc2C)c1 | > 100 | > 100 | > 100 | 71.2 | > 100 | > 100 | 61.5 | > 100 | – | – | – | – | – | – | – | – | – | – | – | –
10 | CCOC(=O)/C=C/C(C(=O)/C=C/c1ccc(OC2CCCCO2)c(OC)c1)=C(O)\C=C\c1ccc(OC2CCCCO2)c(OC)c1 (stereo not given) | 21.6 | 4.51 | 6.68 | – | > 100 | – | 78.4 | 7.56 | 9.53 | 1.94 | 2.85 | 10.6 | 46.3 | – | 23.1 | – | 19.8 | 2.63 | 4.42 | 36.2
11 | O=C1OC(c2ccccc2)=N/C1=C/C=C/c1ccco1 | > 100 | > 100 | > 100 | > 100 | > 100 | > 100 | – | > 100 | – | – | – | – | – | – | – | – | – | – | – | –
12 | COC(=O)C12C3C4C1C1C2C3C41C(=O)OC(C)(C)C (stereo not given) | > 100 | > 100 | > 100 | > 100 | > 100 | 44.1 | > 100 | > 100 | – | – | – | – | – | – | – | – | – | – | – | –
13 | COC(=O)C1=C(C)N(NC(=O)c2ccccc2)C(C)(O)C12CCOC2=O (stereo not given) | > 100 | > 100 | > 100 | > 100 | > 100 | – | > 100 | > 100 | – | – | – | – | – | – | – | – | – | – | – | –
14 | Cc1ccc(SC(C)/C=C/NNC2=NC(c3ccccc3)C(c3ccccc3)=NN2)cc1 (stereo not given) | 98.2 | 27.3 | > 100 | > 100 | > 100 | 65.1 | > 100 | 57.5 | – | – | – | – | – | – | – | – | – | – | – | –
15 | S=C(N/N=C/c1ccco1)NC12CC3CC(CC(C3)C1)C2 | > 100 | > 100 | > 100 | > 100 | > 100 | – | > 100 | > 100 | – | – | – | – | – | – | – | – | – | – | – | –
16 | C=C(CCCCC)CN1CCCC1[C@@](C)(O)CC(=O)OCC (stereo not given in full) | > 100 | > 100 | > 100 | > 100 | > 100 | > 100 | > 100 | > 100 | – | – | – | – | – | – | – | – | – | – | – | –
17 | O=C1c2ccccc2C(=O)C1(Cl)C1(S(=O)(=O)O)c2ccccc2-c2ccccc21 | > 100 | > 100 | > 100 | > 100 | > 100 | > 100 | > 100 | > 100 | – | – | – | – | – | – | – | – | – | – | – | –

Reference: PubChem BioAssay (NCI)
